Patent US20230277508A1, “USE OF COMPOUND AS CYP2E1 INHIBITOR” (SHANGHAI LING XI BIOTECHNOLOGY DEVELOPMENT CO., LTD., priority 2020, published 2023)

Tests used:
CYP2E1 = molecular target: T1, CYP2E1 (Mus musculus, UniProt Q05421); experiment: CYP2E1 activity (CZX metabolism by liver microsome) in LPS-induced mouse pulmonary fibrosis model; format: in vivo; settings: liver microsome of SMI0 high-dose group vs model group, P<0.05
T1 construct: from tissue; host or cells: liver microsomes of treated model mice (calcium precipitation)
T1 sequence (Q05421 whole entry): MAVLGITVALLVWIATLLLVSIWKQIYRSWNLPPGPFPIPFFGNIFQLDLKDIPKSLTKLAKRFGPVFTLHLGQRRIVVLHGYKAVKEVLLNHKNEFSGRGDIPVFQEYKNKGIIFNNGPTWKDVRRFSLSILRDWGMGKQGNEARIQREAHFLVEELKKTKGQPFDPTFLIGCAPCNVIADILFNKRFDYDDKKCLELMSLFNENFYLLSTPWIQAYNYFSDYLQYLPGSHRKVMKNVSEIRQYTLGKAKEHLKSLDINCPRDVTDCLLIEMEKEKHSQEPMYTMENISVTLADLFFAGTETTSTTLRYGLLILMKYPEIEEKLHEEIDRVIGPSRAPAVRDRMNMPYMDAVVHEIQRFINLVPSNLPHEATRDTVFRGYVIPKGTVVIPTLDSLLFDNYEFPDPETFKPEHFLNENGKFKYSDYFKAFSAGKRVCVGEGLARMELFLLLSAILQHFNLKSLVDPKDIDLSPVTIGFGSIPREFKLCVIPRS
Description: Experimental method: A calcium precipitation method was used to prepare a mouse liver microsome, and a Braford method was used to determine a protein concentration in the microsome. An incubation system was prepared with 2×PBS, a CZX solution, and the liver microsome at a final concentration of 0.5 mg/mL, and then pre-incubated at 37° C. for 5 min; NADPH was added to initiate a reaction, and a resulting mixture was incubated at 37° C. for 30 min and then placed on ice to terminate the reaction; and ethyl acetate was added to extract 6-hydroxychlorzoxazone, a resulting mixture was vortexed and centrifuged, and a resulting upper organic phase was collected and blow-dried with nitrogen. A peak area of a CZX metabolite 6-hydroxychlorzoxazone was detected by HPLC under the following conditions: methanol:water=56:44, and detection wavelength: 287 nm. A concentration A C of the metabolite 6-hydroxychlorzoxazone was calculated through substitution into a standard curve; and a reaction rate of conversion of CZX into 6-hydroxychlorzoxazone was calculated according to V(pmol/min/mg)=(ΔC*1000)/(B*T) to evaluate an enzymatic activity of CYP2E1, where B represents a protein concentration of the microsome (mg/mL) and T represents an incubation time (min). A correlation between a CYP2E1 activity and a pulmonary fibrosis severity in mice was analyzed.

[1] = system: lung cancer cell line Lewis in situ transplanted tumor; experiment: Mouse lung cancer model, in situ implantation of Lewis cells into lungs; format: in vivo, C57BL/6N mice
Description: Experimental method: A female C57 mouse lung cancer model with an in situ transplanted tumor was prepared with a lung cancer cell line Lewis at a cell amount of 2*10^4. C57BL/6N mice were divided into a control group, a model group, a positive drug group, and an SMI0 intervention group, and the modeling took 18 days (control group, n=20; model group, n=20; positive drug group (20 mg/kg), n=15; SMI0 (3.3 mg/kg), n=15; SMI0 (10 mg/kg), n=20; and SMI0 (30 mg/kg), n=20). At the end of the experiment, a body weight of mice in each group was recorded, blood was collected from the orbit, the mice were sacrificed, and lung tissues and tumor tissues were collected and weighed. The weight and appearance of the lung (color, texture, or the like of the lung) were recorded. All tumors of an animal were cumulatively arranged together to indicate the tumorigenesis of the animal, and a cumulative weight of lung tumors in each animal was determined. Some lung specimens were subjected to HE staining, and then the lung lesion and tumorigenesis of mice in each group were observed.
Experimental method: A WB method was used to detect the expression of […] cytokines TGF-β, IL-10, and IL-4, inflammation-associated signaling pathway proteins IL-6/p-STAT3 and p-ERK1/2/ERK1/2, and epithelial-mesenchymal transition (EMT)-associated proteins MMP-2 and MMP-9 in the mouse paracancerous lung tissue of each group and detect the expression of […] proteins caspase3 and Bcl-2 and an autophagy-associated protein p53 in the tumor tissue.

[2] = system: B16-F10 cell lung metastasis; experiment: Lung metastasis model, tail vein injection of melanoma cell B16-F10; format: in vivo, C57BL/6 mouse; settings: SMI0 30 mg/kg, 14 days
Description: Experimental method: A female C57BL/6 mouse lung metastasis model was constructed through tail vein injection of a melanoma cell B16-F10, with a cell amount of 8*10^5. Mice were divided into a control group, a model group, and an SMI0 intervention group, and the modeling took 14 days (control group, n=5; model group, n=5; and SMI0 (30 mg/kg), n=4). At the end of the experiment, a body weight of mice in each group was recorded, blood was collected from the orbit, the mice were sacrificed, and lung tissues were collected and weighed. The lung tissues were fixed in a formalin solution for 24 h, and a number of lung nodules of mice in each group was recorded.

H22 liver cancer cells = experiment: Direct effect on H22 liver cancer cells; format: cell-based; settings: up to 100 μmol/L, 24 h
Description: Experimental method: HepG2 liver cancer cells and H22 liver cancer cells in a logarithmic growth phase each were selected and inoculated into a 96-well plate at a concentration of 1*10^5 cells/mL, and then 100 μL of a basic medium including SMI0 at different concentrations (0 μmol/L, 0.16 μmol/L, 0.8 μmol/L, 4 μmol/L, 20 μmol/L, and 100 μmol/L) was added to each well; and 24 h later, the proliferation activity of HepG2 was determined by a CCK8 method, a migration ability of HepG2 was determined by wound-healing assay, and an apoptosis ability of HepG2 was determined by flow cytometry (FCM).

[3] = system: ovarian cancer ID-8 cell line in situ transplanted tumor; experiment: Mouse ovarian cancer in situ transplanted tumor model (ID-8); format: in vivo, C57/6 mouse; settings: as high as; SMI0 30 mg/kg ig daily, 60-day modeling
Description: Experimental method: A female C57/6 mouse ovarian cancer in situ transplanted tumor model was constructed with a murine ovarian cancer ID-8 cell line at a cell concentration of 1×10^6. A model group and an SMI0 intervention group were set for the experiment. The intervention group was intragastrically administered with the SMI0 compound at 30 mg/kg every day from three days before modeling to the end of the 60-day modeling (model group, n=15; and SMI0 compound (30 mg/kg) group, n=12). At the end of the experiment, blood was collected from the orbit, a body weight was measured, then the mice each were sacrificed, and ovary tissues and tumor tissues were collected. Ovary tissue specimens were subjected to HE staining, and then the ovary tumor tissue and tumorigenesis of mice in each group were observed.

[4] = system: ovarian cancer ID8 cell line abdominal transplanted tumor; experiment: Mouse ovarian cancer abdominal transplanted tumor model (ID8); format: in vivo, C57/6 mouse; settings: SMI0 30 mg/kg ig daily, 30-day modeling
Description: Experimental method: A female C57/6 mouse ovarian cancer abdominal transplanted tumor model was constructed with an ovarian cancer murine ID8 cell line at a cell concentration of 2.5×10^6. A model group and an SMI0 intervention group were set for the experiment. The intervention group was intragastrically administered with the SMI0 compound at 30 mg/kg every day from three days before modeling to the end of the 30-day modeling (model group, n=10 mice; and SMI0 compound (30 mg/kg) group, n=11 mice). At the end of the experiment, blood was collected from the orbit, a body weight was measured, then the mice each were sacrificed, and ovary tissues were collected. Ovary tissue specimens were subjected to HE staining, and then the ovary tissue lesion and tumorigenesis of mice in each group were observed.

[5] = WB, SMI0 30 mg/kg vs model group, P<0.05

## CC(=O)c1scnc1C [SMI0]
CYP2E1
  reaction rate V of CZX metabolism: significantly reduced
[1]; WB, SMI0 30 mg/kg vs model group, P<0.01
  expression of the autophagy-associated protein p53 in the tumor tissue: significantly increased
[1]; [5]
  expression of Bcl-2 in the tumor tissue: significantly reduced
  expression of caspase3 in the tumor tissue: significantly reduced
[1]; WB, SMI0 intervention group vs model group, P<0.05
  expression of proinflammatory cytokines (TGF-β and IL-10), IL-6/p-STAT3, p-ERK1/2/ERK1/2, MMP-2 and MMP-9 in the paratumoral tissue: significantly reduced
[1]; as high as, SMI0 intervention group (3.3, 10, 30 mg/kg), 18 days, lung tumor weight
  tumor proliferation inhibition rate: 68.3%
[2]; vs model group
  lung weight: significantly reduced
  number of nodules: significantly reduced
[2]; as high as
  tumor proliferation inhibition rate: 58.3%
H22 liver cancer cells
  effect on the proliferation, migration, and apoptosis of H22 liver cancer cells: no significant inhibitory effect
[3]
  ascites weight inhibition rate: 76.40%
  tumor proliferation inhibition rate: 63.14%
[4]
  inhibition rate for the ascites weight: 83.78%
[4]; vs model group
  ascites volume: significantly reduced
  body weight of mice: significantly reduced
[4]; as high as
  inhibition rate for tumor proliferation of the greater momentum: 58.70%
